Measured values taken from ChEMBL document CHEMBL1165903, “Design and synthesis of 1,4-dihydropyridine derivatives as BACE-1 inhibitors” (Eur J Med Chem, 2010).

The molecules below were run against T1, Beta-secretase 1 (Homo sapiens, UniProt P56817) (assay: Inhibition of BACE1 in human HEK293 cells transfected with pCDNA-neo-SEAP-APP assessed as secreted alkaline phosphatase after cleavage of beta-site of APP by fluorescence assay).
T1 sequence (P56817 whole entry): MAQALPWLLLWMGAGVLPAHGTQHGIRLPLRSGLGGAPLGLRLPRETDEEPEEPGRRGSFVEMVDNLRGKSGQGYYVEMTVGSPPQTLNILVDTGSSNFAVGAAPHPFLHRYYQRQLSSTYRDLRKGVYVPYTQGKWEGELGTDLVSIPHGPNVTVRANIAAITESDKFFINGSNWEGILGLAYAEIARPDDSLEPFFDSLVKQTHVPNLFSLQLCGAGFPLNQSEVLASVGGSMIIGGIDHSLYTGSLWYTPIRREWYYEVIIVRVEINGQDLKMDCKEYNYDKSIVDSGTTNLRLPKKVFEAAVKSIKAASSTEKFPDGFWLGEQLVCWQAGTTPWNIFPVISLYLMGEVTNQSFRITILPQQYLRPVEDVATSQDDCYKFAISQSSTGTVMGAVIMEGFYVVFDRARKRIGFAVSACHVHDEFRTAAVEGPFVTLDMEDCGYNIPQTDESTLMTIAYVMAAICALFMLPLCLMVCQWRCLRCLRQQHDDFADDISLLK
Format: cell-based
`CC1=C(C(=O)N[C@@H](Cc2ccccc2)[C@H](O)CNC2CC2)C(C)C(C(=O)N[C@H](C)c2ccccc2)=C(C)N1S(C)(=O)=O` (stereo not given in full) was tested, and the IC50 was 16.1 µM. `CC1=C(C(=O)NOCc2ccccc2)C(C)C(C(=O)N[C@@H](Cc2ccccc2)[C@H](O)CNC2CC2)=C(C)N1S(C)(=O)=O` (stereo not given in full) gave an IC50 of 14.9 µM. In the case of `CCCC1C(C(=O)NOCc2ccccc2)=C(C)N(S(C)(=O)=O)C(C)=C1C(=O)N[C@@H](Cc1ccccc1)[C@H](O)CNC1CC1` (stereo not given in full), the IC50 is reported as 8.1 µM. With `CC1=C(C(=O)NOCc2ccccc2)C(c2ccccc2)C(C(=O)N[C@@H](Cc2ccccc2)[C@H](O)CNC2CC2)=C(C)N1S(C)(=O)=O` (stereo not given in full) the IC50 was 21.4 µM. `COC(=O)CN1C(C)=C(C(=O)NOCc2ccccc2)C(C)C(C(=O)N[C@@H](Cc2ccccc2)[C@H](O)CNC2CC2)=C1C` (stereo not given in full) was tested, and the IC50 was 15.2 µM. `CCCC1C(C(C)=O)=C(C)N(CC(=O)OC(C)C)C(C)=C1C(=O)N[C@@H](Cc1ccccc1)[C@H](O)CNc1cccc(F)c1` (stereo not given in full) showed an IC50 of 27.1 µM. Molecule `COc1cccc(CNC[C@@H](O)[C@H](Cc2ccccc2)NC(=O)C2=CN(CC(=O)OC(C)C)C(C)=C(C(C)=O)C2C)c1` (stereo not given in full) has an IC50 of 26.1 µM. `CCCC1C(C(C)=O)=C(C)N(CC(=O)OC(C)C)C(C)=C1C(=O)N[C@@H](Cc1ccccc1)[C@H](O)CNc1cccc(OC)c1` (stereo not given in full) gave an IC50 of 26.6 µM. `CC1=C(C(=O)N[C@@H](Cc2ccccc2)[C@H](O)CNC2CC2)C(C)C(C(=O)OCc2ccccc2)=C(C)N1CC(=O)N(C)C` (stereo not given in full) was tested, and the IC50 was 39.1 µM. For `CC1=C(C(=O)N[C@@H](Cc2ccccc2)[C@H](O)CNC2CC2)C(C)C(C(=O)OCc2ccccc2)=C(C)N1CC(=O)N(C)C(C)C` (stereo not given in full), the IC50 was 28.2 µM. In the case of `CCCC1C(C(=O)N[C@@H](Cc2ccccc2)[C@H](O)CNc2cccc(OC)c2)=CN(CC(=O)OC(C)C)C=C1C(=O)OC(C)(C)C` (stereo not given in full), the IC50 is reported as 30.4 µM. For `CCCC1C(C(=O)N[C@@H](Cc2ccccc2)[C@H](O)CNC2CC2)=CN(CC(=O)OC(C)C)C=C1C(=O)N[C@H](C)c1ccccc1` (stereo not given in full), the IC50 was 29.6 µM. `CCCC1C(C(=O)N[C@@H](Cc2ccccc2)[C@H](O)CNc2cccc(OC)c2)=CN(CC(=O)OC(C)C)C=C1C(=O)N[C@H](C)c1ccccc1` (stereo not given in full) was tested, and the IC50 was 31.2 µM. In the case of `CC(=O)C1=C(C)N(CC(=O)OC(C)C)C(C)=C(C(=O)N[C@@H](Cc2ccccc2)[C@H](O)CNc2cccc(F)c2)C1C` (stereo not given in full), the IC50 is reported as 26.4 µM. For `CCCC1C(C(C)=O)=C(C)N(CC(=O)OC(C)C)C(C)=C1C(=O)N[C@@H](Cc1ccccc1)[C@H](O)CNC1CC1` (stereo not given in full), the IC50 was 33.1 µM. Work on `CC(=O)C1=C(C)N(CC(=O)OC(C)C)C(C)=C(C(=O)N[C@@H](Cc2ccccc2)[C@H](O)CNC2CC2)C1C` (stereo not given in full) yielded an IC50 of 29.3 µM. `CC(C)OC(=O)CN1C=C(C(=O)N[C@@H](Cc2ccccc2)[C@H](O)CNC2CC2)C(C)C(C(=O)OC(C)(C)C)=C1` (stereo not given in full) was tested, and the IC50 was 31.9 µM. `CCCC1C(C(=O)N[C@@H](Cc2ccccc2)[C@H](O)CNC2CC2)=CN(CC(=O)OC(C)C)C=C1C(=O)OC(C)(C)C` (stereo not given in full) gave an IC50 of 24.6 µM. Work on `CCC1C(C(=O)N[C@@H](Cc2ccccc2)[C@H](O)CNC2CC2)=C(C)N(S(C)(=O)=O)C(C)=C1C(=O)N[C@H](C)c1ccccc1` (stereo not given in full) yielded an IC50 of 16.2 µM. With `CCC1C(C(=O)NOCc2ccccc2)=C(C)N(S(C)(=O)=O)C(C)=C1C(=O)N[C@@H](Cc1ccccc1)[C@H](O)CNC1CC1` (stereo not given in full) the IC50 was 9.5 µM. Work on `CC1=C(C(=O)NOCc2ccccc2)C(C(C)C)C(C(=O)N[C@@H](Cc2ccccc2)[C@H](O)CNC2CC2)=C(C)N1S(C)(=O)=O` (stereo not given in full) yielded an IC50 of 11 µM. `CC1=C(C(=O)NOCc2ccccc2)C(C)C(C(=O)N[C@@H](Cc2ccccc2)[C@H](O)CNC2CC2)=C(C)N1CC(=O)OC(C)C` (stereo not given in full) was tested, and the IC50 was 9 µM. Molecule `CCOC(=O)CN1C(C)=C(C(=O)NOCc2ccccc2)C(C)C(C(=O)N[C@@H](Cc2ccccc2)[C@H](O)CNC2CC2)=C1C` (stereo not given in full) has an IC50 of 15.5 µM. With `CCCC1C(C(C)=O)=C(C)N(CC(=O)OC(C)C)C(C)=C1C(=O)N[C@@H](Cc1ccccc1)[C@H](O)CNCc1cccc(OC)c1` (stereo not given in full) the IC50 was 23.2 µM. With `CC(=O)OCCCN1C(C)=C(C(=O)N[C@@H](Cc2ccccc2)[C@H](O)CNC2CC2)C(C)C(C(=O)OCc2ccccc2)=C1C` (stereo not given in full) the IC50 was 26.9 µM. `CC1=C(C(=O)N[C@@H](Cc2ccccc2)[C@H](O)CNC2CC2)C(C)C(C(=O)OCc2ccccc2)=C(C)N1CC(=O)N1CCOCC1` (stereo not given in full) was tested, and the IC50 was 28.4 µM. `CC1=C(C(=O)OCc2ccccc2)C(C)C(C(=O)N[C@@H](Cc2ccccc2)[C@H](O)CNC2CC2)=CN1CC(=O)OC(C)C` (stereo not given in full) showed an IC50 of 16.1 µM. `CC(C)OC(=O)CN1C=C(C(=O)N[C@@H](Cc2ccccc2)[C@H](O)CNC2CC2)C(C)C(C(=O)N[C@H](C)c2ccccc2)=C1` (stereo not given in full) showed an IC50 of 32.8 µM. `CC(=O)C1=C(C)N(CC(=O)OC(C)C)C=C(C(=O)N[C@@H](Cc2ccccc2)[C@H](O)CNc2cccc(F)c2)C1C` (stereo not given in full) showed an IC50 of 29.3 µM.

What follows are molecules tested against T1, Beta-secretase 1 (assay: Inhibition of BACE1).
`CCNc1cc(C(=O)N[C@@H](Cc2ccccc2)[C@H](O)CNc2cccc(C(F)(F)F)c2)cc(N2CCCCS2(=O)=O)c1` was tested, and the IC50 was 0.005 µM.
